Measured values published in patent US20250009691A1, “DIALYSIS FLUID COMPRISING KETONE BODIES FOR THE TREATMENT OF CANCER” (GAMBRO LUNDIA AB, priority 2021, published 2025).

What was measured:
Format in all cases: cell-based, human
A172 (glioblastoma) = assay: Study 2: CellTiter-Glo viability, DMEM without sodium pyruvate; conditions: BOHB 0/4/12 mM, 3 d
Experimental: (§1) Cell lines established from human colon carcinoma (HCT15, NCI-H508 and COLO205), renal cell carcinoma (769-P, 786-O and RCC4) and glioblastoma (LN-18, A-172 and U-118 MG) were selected for the analysis. All cell lines were obtained from American Type Culture Collection (ATCC, LGC standards, UK) except for RCC4 and HCT15 that was purchased from Sigma-Aldrich (Merck, Germany). In addition, primary human renal cell carcinoma (RCC) cells isolated from patient nephrectomies were included in the study. […]
(§2) Optimal seeding density was determined for each cell line in 96 well plates according to the “Protocol for optimizing cell seeding densities to ensure Log-phase growth”. […] Cover the plate. • Incubate the plate overnight at 37° C., 5% CO2. • Add 50 μL of fresh media to the plate wells to achieve a final volume of 200 µL and incubate for 72 h at 37° C., 5% CO2. • Measure viability using Cell Titer Glo assay according to manufacturer's protocol. • Plot log cell number against luminescence intensity to identify the concentration of cells at which log growth is achieved.
(§3) CellTiter-Glo Luminescent cell viability assay (Promega) was used as a readout of viability.
(§4) For each cell line, optimal number of cells as determined above were seeded into 96-well plates on day 0. […]

[1] = system: RCC4 (renal cell carcinoma); assay: as above; conditions: BOHB 0/4/12 mM, 3 d
Experimental: as §1, §2, §3, §4

glioma cell line A172 = assay: Example 2: BOHB and Acac added alone or in combination to Medium A-C (CellTiter-Glo); conditions: for growth, repetition experiments 2-6: BOHB or Acac added separately, FIG. 9, inconsistent results; for number of cells compared to 8 mM LiCl control: 8 mM Acac
Experimental: (§5) Stock solutions of DL-β-Hydroxybutyric acid sodium salt (H6501, Sigma Aldrich) and Lithium Acetoacetate (A8509, Sigma Aldrich) were prepared in water, sterile filtered, aliquoted and stored at −20° C. Lithium Chloride (L7026, Sigma Aldrich) was used as a control for the addition of Lithium in the Li-Acac.
(§6) CellTiter-Glo Luminescent cell viability assay (Promega) was used as a readout of cell numbers according to the manufacturers' instructions. In experiments shown in FIGS. 7-8, double plates were seeded and treated. One set of plates was used for collection of medium for lactate measurement (see below) and the CellTiterGlo-assay. The other set of plates was frozen at −80° C. at the end of the experiment. The frozen plates were intended for the CyQuant cell proliferation assay (Thermo Fisher) that measures the amount of DNA per well. Analysis of the amounts of cells by both CellTiterGlo and CyQuant assays would ensure that effects of the culture conditions on viability or growth rate would not be concealed by simultaneous changes in ATP-levels per cell.
(§7) Next, it was decided to also include Acac in the study and analyze the viability of cells cultured in the presence of BOHB and Acac alone or in combination in Medium A-C. The experiment was performed at 21% and 5% O2. The experiments were made with glioma cell lines A172 and U118MG.
(§8) Being a chiral molecule, BOHB exists as two enantiomers, D- and L-BOHB. D-BOHB is normally produced and metabolized in humans. The BOHB-salt used in this study contains a mixture of 50:50 of D- and L-BOHB. In order to ensure a high presence of the active D-form, the total concentration of BOHB added was increased to 16 mM, giving a level of 8 mM D-BOHB. To keep the total concentration of active ketones constant, 8 mM Acac was used, and for the combination of both ketones, the levels were adjusted to 4 mM Acac and 8 mM BOHB (containing 4 mM D-BOHB).
(§9) The Acac available for in vitro use is in the form of a lithium salt. Since lithium itself can affect the viability of cancer cells [Cohen-Harazi et al., Anticancer Res 2020; 40:3831-3837], 8 mM LiCl was used as a control for the 8 mM Acac data point and 4 mM LiCl was used as a control for the 4 mM Acac/8 mM BOHB data.
(§10) At the end of the experiment, the culture media from each well was collected and frozen to enable later determination of lactate levels as a measurement of the metabolic state. In addition, double experiments were performed, where one set of plates were frozen for later quantification of cell numbers using the CyQuant proliferation assay, and the amounts of cells in the other set were analyzed by CellTiterGlo viability assay.

glioma cell line U118MG = assay: as above; conditions: for number of cells compared to 8 mM LiCl control: 8 mM Acac
Experimental: as §5, §6, §7, §8, §9, §10

[2] = system: renal carcinoma cell line RCC4; assay: Example 2: BOHB and Acac added alone or in combination to Medium B-C (CellTiter-Glo); conditions: nutrient restricted Medium C
Experimental: as §5, §6
Being a chiral molecule, BOHB exists as two enantiomers, D- and L-BOHB. D-BOHB is normally produced and metabolized in humans. The BOHB-salt used in this study contains a mixture of 50:50 of D- and L-BOHB. […]

[3] = Medium A, 16 mM BOHB alone, both normoxia and hypoxia, 3 days
[4] = Medium C, 16 mM BOHB, both 21 and 5% O2
[5] = Medium A, both normoxia and hypoxia

Row | Structure (SMILES) | proliferation of cells with increase in the concentration of BOHB (A172 (glioblastoma)) | proliferation of cells with increase in the concentration of BOHB [1] | growth inhibitory effect (glioma cell line A172; [3]) | number of cells, % of the amount in Medium B without BOHB (glioma cell line A172; Medium B, hypoxic) | number of cells, % compared to C-medium without BOHB (glioma cell line A172; [4]) | growth, repetition experiments 2-6 (glioma cell line A172; Medium C) | growth inhibitory effect (glioma cell line U118MG; [3]) | number of cells, % compared to C-medium without BOHB (glioma cell line U118MG; [4]) | increased sensitivity to high levels of BOHB or a combination of BOHB and Acac [2] | number of cells compared to 8 mM LiCl control (glioma cell line A172; [5]) | number of cells compared to 8 mM LiCl control (glioma cell line A172; Medium B, only at 21% O2) | amounts of cells compared to 8 mM LiCl control (glioma cell line A172; Medium C, 8 mM Acac alone) | number of cells compared to 8 mM LiCl control (glioma cell line U118MG; [5]) | number of cells compared to 8 mM LiCl control (glioma cell line U118MG; Medium B, only at 21% O2) | amounts of cells compared to 8 mM LiCl control (glioma cell line U118MG; Medium C, 8 mM Acac alone)
1 | CC(O)CC(=O)[O-].[Na+] (racemic) [BOHB, DL-β-Hydroxybutyric acid sodium salt] | suppresses the proliferation of cells | suppresses the proliferation of cells | no growth inhibitory effect | approximately 70% | around 30% | trend of reduced growth | no growth inhibitory effect | around 30% | not found |  |  |  |  |  | 
2 | CC(=O)CC(=O)[O-].[Li+] [Acac, Lithium Acetoacetate] |  |  |  |  |  | trend of reduced growth |  |  |  | did not reduce the number of cells further | reduced the number of cells significantly | did not significantly reduce the amounts of cells | did not reduce the number of cells further | reduced the number of cells significantly | did not significantly reduce the amounts of cells
